Measured values taken from publication PMC3445516 (PLoS ONE, 2012).

Experiments:
PKD1 = molecular target: T1, PKD1 (Homo sapiens, UniProt Q15139); test: Kinetic analysis, Lineweaver-Burk plots (ATP competition); type: biochemical
T1 construct: purchased Enzo Life sciences (Farmingdale, NY)
Method: (§1) PMA induces PKC-dependent phosphorylation of Ser744/748 (S^744/748) in the activation loop followed by autophosphorylation of PKD1 on Ser916 (S^916) in the C-terminus, [31]. The catalytic activity of PKD1 correlates well with the level of phosphorylation at S^916 [31].
(§2) Figure 5 In vitro IC50, cellular activity, and mode of action of representative compounds. […] IC50 values were calculated based on the dose-response curve. Data are represented as mean ± SEM of 3 independent experiments. […] Cell lysates were subjected to immunoblotting for pS^916-PKD1 and pS^744/748-PKD1. Tubulin was blotted as loading control. The experiments were repeated three times and representative blots are shown. C.

[1] = system: LPS-stimulated TNFα synthesis; design: method as in PMID 14561090; settings: acute rat model of LPS-stimulated TNFα synthesis; cited from earlier work
[2] = molecular target: T2, recombinant GST-tagged human protein kinase D1 (PKD1) (Homo sapiens, UniProt Q15139); test: In vitro radiometric PKD1 kinase assay; type: biochemical
T2 construct: purchased Enzo Life sciences (Farmingdale, NY)
T2 sequence (Q15139 1-912): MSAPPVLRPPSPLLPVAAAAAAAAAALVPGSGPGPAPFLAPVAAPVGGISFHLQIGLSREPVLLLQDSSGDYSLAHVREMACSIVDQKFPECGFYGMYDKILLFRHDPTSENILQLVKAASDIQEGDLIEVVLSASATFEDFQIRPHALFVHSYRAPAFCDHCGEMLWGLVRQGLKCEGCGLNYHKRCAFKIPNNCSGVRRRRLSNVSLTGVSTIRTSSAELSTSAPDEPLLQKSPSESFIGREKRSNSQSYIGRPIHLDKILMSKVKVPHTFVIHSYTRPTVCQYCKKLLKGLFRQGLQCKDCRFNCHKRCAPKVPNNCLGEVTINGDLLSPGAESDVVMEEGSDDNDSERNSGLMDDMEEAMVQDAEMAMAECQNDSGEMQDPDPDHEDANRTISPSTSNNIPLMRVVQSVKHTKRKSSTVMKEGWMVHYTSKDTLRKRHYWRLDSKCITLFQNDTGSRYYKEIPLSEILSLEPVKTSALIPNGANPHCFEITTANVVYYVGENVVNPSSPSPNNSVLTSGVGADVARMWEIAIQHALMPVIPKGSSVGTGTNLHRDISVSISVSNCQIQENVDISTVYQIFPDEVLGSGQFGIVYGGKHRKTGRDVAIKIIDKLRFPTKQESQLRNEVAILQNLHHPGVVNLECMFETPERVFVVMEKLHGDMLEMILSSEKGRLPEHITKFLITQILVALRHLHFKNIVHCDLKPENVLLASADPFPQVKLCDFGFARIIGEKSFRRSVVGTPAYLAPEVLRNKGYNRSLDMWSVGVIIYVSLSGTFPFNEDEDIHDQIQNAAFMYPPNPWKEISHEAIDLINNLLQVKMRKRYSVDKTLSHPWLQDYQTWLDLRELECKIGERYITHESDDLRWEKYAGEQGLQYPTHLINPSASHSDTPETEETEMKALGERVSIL
Method: All compounds were given distinct UPCMLD (University of Pittsburgh Center for Chemical Methodologies and Library Development) IDs and were then assigned numerical IDs for convenient data display. Evaluation of each compound was carried out in triplicate at a single concentration (1 µM). Our previously described PKD1 inhibitor, kb-NB142-70, and DMSO (solvent alone) were used as positive and negative controls, respectively. Percent residual kinase activity was calculated based on that of the negative control (DMSO).
Kinase active recombinant GST-tagged human protein kinase D1 (PKD1) was obtained from Enzo Life sciences (Farmingdale, NY). DMSO was purchased from Sigma. Recombinant PKCα, PKCδ and CAMKIIα were obtained from SignalChem (Richmond, BC, Canada). ATP was purchased from Fisher Scientific. HDAC5 substrate peptide was synthesized by Biobasic Canada Inc. (Markham, ON). Myelin basic protein 4–14 was purchased from AnaSpec Inc. (Fremont, CA). The targeted kinase inhibitor library was obtained from Hoffmann-La Roche, Inc.
1.2 µg of HDAC-5 was used as substrate in the reaction. Phosphorylation of HDAC5 was detected in a kinase reaction having 1 µCi [γ-^32P] […] The reaction was incubated at 30° for 10 minutes and 25 µL of the reaction was spotted on Whatman P81 filter paper. The filter paper was washed 3 times in 0.5% phosphoric acid, air dried and counted using Beckman LS6500 multipurpose scintillation counter. Percent PKD1 inhibition was graphed using GraphPad Prism software 5.0.

[3] = molecular target: T3, endogenous PKD1 in LNCaP prostate cancer cells (Homo sapiens, UniProt Q15139); test: PMA-induced activation of PKD1 in LNCaP cells (immunoblot pS916 / pS744/748); type: cell-based; settings: PMA 10 nM
T3 construct: endogenous in cells; host or cells: LNCaP prostate cancer cells
T3 sequence (Q15139 1-912): T2 sequence (Q15139 1-912)
Method: as §1, §2

p38α = p38α (Homo sapiens, UniProt Q16539); settings: 10 and 100 nM
Method: Phosphorylation of 3.5 µg of p38 substrate was detected in a reaction having 1 µCi [γ-^32P] ATP (Perkin Elmer Life Sciences), 50 µM ATP, 50 ng active recombinant p38 in 50 µL kinase buffer containing 25 mM Tris-HCl, pH 7.5, 10 mM MgCl2, 5 mM β-glycerophosphate, 0.1 mM Na3VO4 and 2 mM DTT. The reaction was incubated at 30°C for 10 minutes and 25 µL of the reaction was spotted on Whatman P81 filter paper. The filter paper was washed 3 times in 0.5% phosphoric acid, air dried and counted using Beckman LS6500 multipurpose scintillation counter. Percent p38 inhibition was graphed using GraphPad Prism software 5.0.

PKCδ = PKCδ (Homo sapiens, UniProt Q05655); test: In vitro radiometric PKC kinase assay; type: biochemical; design: purchased SignalChem (Richmond, BC, Canada); settings: 0.1, 1 and 10 µM; positive control
Method: (§3) In this study, we counter-screened the twenty-eight PKD1 inhibitory agents for inhibition of PKCα, PKCδ and CAMKIIα in order to get an initial profile for the potential PKD selectivity, since these are the functionally most closely related kinases. The compounds were examined at 0.1, 1 and 10 µM concentration. […] Next, the inhibitory activity for CAMKIIα was examined.
(§4) The PKC kinase assay was carried out by co-incubating 1 µCi [γ-^32P]ATP, 20 µM ATP, 50 ng of purified PKCα or PKCδ and 5 µg of myelin basic protein 4–14, 0.25 mg/mL bovine serum albumin, 0.1 mg/mL phosphatidylcholine/phosphatidylserine (80/20%) (1 µM), 1 µM phorbol dibutyrate in 50 µL of kinase buffer containing 50 mM Tris-HCl, pH 7.5, 4 mM MgCl2 and 10 mM β-mercaptoethanol. For the CAMK assay, 50 ng of CAMK and 2 µg Syntide-2 substrate in 50 µL kinase buffer were incubated with 0.1 mM MgCl2, 1 µCi of [γ-^32P] ATP, 70 µM ATP. 0.5 mM CaCl2 and 30 ng/µL calmodulin were preincubated for 15 min on ice and then added in the kinase reaction. The reactions were incubated at 30°C for 10 minutes and 25 µL of the reaction was spotted on Whatman P81 filter paper. The filter paper was washed 3 times in 0.5% phosphoric acid, air dried and counted using Beckman LS6500 multipurpose scintillation counter.

PKCα = molecular target: T4, PKCα (Homo sapiens, UniProt P17252); test: In vitro radiometric PKC kinase assay; type: biochemical; settings: 0.1, 1 and 10 µM; positive control
T4 construct: purchased SignalChem (Richmond, BC, Canada)
Method: as §3, §4

Sequence of PKCδ (Q05655 whole entry): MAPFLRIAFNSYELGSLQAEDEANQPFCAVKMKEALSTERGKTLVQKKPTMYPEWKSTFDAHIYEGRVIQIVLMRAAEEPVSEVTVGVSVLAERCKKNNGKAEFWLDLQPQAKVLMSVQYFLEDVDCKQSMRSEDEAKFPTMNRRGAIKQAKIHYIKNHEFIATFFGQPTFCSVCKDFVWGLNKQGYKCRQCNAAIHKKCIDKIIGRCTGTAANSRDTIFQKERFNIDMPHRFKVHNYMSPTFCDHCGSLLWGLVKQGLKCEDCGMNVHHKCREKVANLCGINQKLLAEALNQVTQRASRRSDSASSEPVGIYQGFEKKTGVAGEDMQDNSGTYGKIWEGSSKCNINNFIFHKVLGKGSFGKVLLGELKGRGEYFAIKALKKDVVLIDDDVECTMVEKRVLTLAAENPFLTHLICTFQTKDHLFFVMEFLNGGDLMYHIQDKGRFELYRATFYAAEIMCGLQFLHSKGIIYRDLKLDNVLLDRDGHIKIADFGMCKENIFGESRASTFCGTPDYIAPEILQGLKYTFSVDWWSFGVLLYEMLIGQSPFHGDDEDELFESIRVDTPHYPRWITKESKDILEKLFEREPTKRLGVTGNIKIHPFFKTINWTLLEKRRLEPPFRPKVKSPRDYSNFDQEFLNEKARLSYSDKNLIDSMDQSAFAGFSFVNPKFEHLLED
Sequence of p38α (Q16539 whole entry): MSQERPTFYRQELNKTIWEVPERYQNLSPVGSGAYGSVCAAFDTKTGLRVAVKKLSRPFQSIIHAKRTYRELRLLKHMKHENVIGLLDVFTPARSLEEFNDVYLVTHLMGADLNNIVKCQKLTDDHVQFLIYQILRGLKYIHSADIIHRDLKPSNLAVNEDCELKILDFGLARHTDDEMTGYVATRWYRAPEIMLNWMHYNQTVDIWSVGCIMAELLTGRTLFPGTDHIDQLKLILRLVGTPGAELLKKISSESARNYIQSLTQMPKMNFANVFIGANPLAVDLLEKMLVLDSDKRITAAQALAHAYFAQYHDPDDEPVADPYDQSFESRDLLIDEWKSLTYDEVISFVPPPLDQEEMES

mode of inhibition with respect to ATP (PKD1)	IC50 ([2]; dose-response, mean ± SEM of 3 independent experiments) [nM]	inhibition at 1 µM ([2]; read-out: Inhibition of PKD1) [%]	effect on PKC-induced transphosphorylation at S744/748 [3]	IC50 ([3]; densitometry of pS916-PKD1 levels, read-out: cellular IC50 for inhibition of PKD1) [nM]	inhibition of p38α (p38α)	SMILES	in vivo efficacy [1]	inhibition of PKCδ (PKCδ)	inhibition of PKCα (PKCα)
competitive with respect to ATP	16.8	94	did not affect	1500	most potent	CC(CO)Nc1cc(-c2[nH]c3cccnc3c2-c2ccc(F)cc2)ccn1 (stereo not drawn) [Compound 139]	in vivo efficacy has been demonstrated	–	–
–	–	–	–	–	–	CN(C)CCCn1cc(C2=C(c3c[nH]c4ccccc34)C(=O)NC2=O)c2ccccc21 [GF109203X, reference compound]	–	strongly inhibited	strongly inhibited
